From US4608373A, “Cephem compounds” (Yamanouchi Pharmaceutical Co., Ltd., priority 1982, dated 1986)
Converted amounts (≈) assume the structure as drawn. Where a name gives a salt, the structure may show the parent alone. Read-outs that look alike come from different tables or passages of the source.

What was measured:
Format in all cases: cell-based
[1] = test system: Ent. cloacae V-8; assay: Antibacterial activity (MIC), Ent. cloacae V-8; conditions: Enterobacter cloacae, V8, read-out: MIC (minimum effective inhibitory concentration)
Text: (§1) Antibacterial activities (minimum effective inhibitory concentrations) of the compounds of formula I are shown in the following table in comparison with those of cefatazidime having the structure [drawing 5] and cefmenoxime having the structure [drawing 6]

[2] = test system: Kleb. pneumoniae ATCC 10031; assay: Antibacterial activity (MIC), Kleb. pneumoniae ATCC 10031; conditions: Klebsiella pneumoniae, ATCC10031, read-out: MIC (minimum effective inhibitory concentration)
Text: as §1

[3] = test system: Serr. marcescens IID 620; assay: Antibacterial activity (MIC), Serr. marcescens IID 620; conditions: Serratia marcescens
Text: as §1

[4] = test system: Proteus morgani IID 602; assay: Antibacterial activity (MIC), Proteus morgani IID 602; conditions: read-out: MIC (minimum effective inhibitory concentration)
Text: as §1

[5] = test system: Staph. aureus Smith; assay: Antibacterial activity (MIC), Staph. aureus Smith; conditions: Staphylococcus aureus, read-out: MIC (minimum effective inhibitory concentration)
Text: as §1

[6] = test system: Staph. aureus Terashima; assay: Antibacterial activity (MIC), Staph. aureus Terashima; conditions: Staphylococcus aureus, read-out: MIC (minimum effective inhibitory concentration)
Text: as §1

[7] = test system: Staph. aureus ATCC 6538P; assay: Antibacterial activity (MIC), Staph. aureus ATCC 6538P; conditions: Staphylococcus aureus, ATCC6538P, read-out: MIC (minimum effective inhibitory concentration)
Text: as §1

[8] = test system: E. coli Ebara; assay: Antibacterial activity (MIC), E. coli Ebara; conditions: Escherichia coli, read-out: MIC (minimum effective inhibitory concentration)
Text: as §1

[9] = test system: Ent. aerogenes ATCC 13048 (MS-1); assay: Antibacterial activity (MIC), Ent. aerogenes ATCC 13048 (MS-1); conditions: Klebsiella aerogenes, ATCC13048, read-out: MIC (minimum effective inhibitory concentration)
Text: as §1

[10] = test system: Ps. aeruginosa NCTC 10490; assay: Antibacterial activity (MIC), Ps. aeruginosa NCTC 10490; conditions: Pseudomonas aeruginosa, NCTC10490, read-out: MIC (minimum effective inhibitory concentration)
Text: as §1

[11] = test system: Ps. aeruginosa IID 5142; assay: Antibacterial activity (MIC), Ps. aeruginosa IID 5142; conditions: Pseudomonas aeruginosa, IID5142, read-out: MIC (minimum effective inhibitory concentration)
Text: as §1

[12] = IID620, Serr. marcescens IID 620, read-out: MIC (minimum effective inhibitory concentration)

Row | Structure (SMILES) | MIC [1] [µg/mL] | MIC [2] [µg/mL] | MIC [3, 12] [µg/mL] | MIC ([4]; Proteus morgani IID 602) [µg/mL] | MIC [5] [µg/mL] | MIC [6] [µg/mL] | MIC [7] [µg/mL] | MIC ([8]; E. coli Ebara) [µg/mL] | MIC [9] [µg/mL] | MIC [10] [µg/mL] | MIC [11] [µg/mL] | MIC ([3]; IID620, read-out: MIC (minimum effective inhibitory concentration)) [µg/mL] | MIC [4] [µg/mL] | MIC [8] [µg/mL]
1 | CSC1=C(C(=O)O)N2C(=O)C(NC(=O)/C(=N\OCc3csc(N)n3)c3csc(N)n3)[C@H]2SC1 (stereo partly drawn) [3(b), (Z)-7-{α-(2-amino-4-thiazolyl)-α-[(2-amino-4-thiazolyl)methoxyimino]acetamido}-3-methylthio-3-cephem-4-carboxylic acid] | 3.13 (≈ 5.93 µM) | ≤ 0.2 | 1.56 (≈ 2.96 µM) | 1.56 (≈ 2.96 µM) | 0.78 (≈ 1.48 µM) | 1.56 (≈ 2.96 µM) | 0.78 (≈ 1.48 µM) | 3.13 (≈ 5.93 µM) | 6.25 (≈ 11.8 µM) | 1.56 (≈ 2.96 µM) |  |  |  | 
2 | Cn1nnnc1SCC1=C(C(=O)O)N2C(=O)C(NC(=O)/C(=N\OCc3csc(N)n3)c3csc(N)n3)C2SC1 (centres unmarked) [Example 6] | 1.56 (≈ 2.56 µM) | ≤ 0.2 | 0.39 (≈ 0.64 µM) | 0.39 (≈ 0.64 µM) | 0.78 (≈ 1.28 µM) | 1.56 (≈ 2.56 µM) | 0.78 (≈ 1.28 µM) | ≤ 0.2 | 1.56 (≈ 2.56 µM) | ≤ 0.2 | 12.5 (≈ 20.5 µM) |  |  | 
3 | CC(C)(O/N=C(\C(=O)N[C@@H]1C(=O)N2C(C(=O)[O-])=C(C[n+]3ccccc3)CS[C@H]12)c1csc(N)n1)C(=O)O [CD, Ceftazidime, reference compound] | 1.56 (≈ 2.85 µM) | ≤ 0.2 |  |  | 6.25 (≈ 11.4 µM) | 12.5 (≈ 22.9 µM) | 6.25 (≈ 11.4 µM) |  | 0.39 (≈ 0.714 µM) | 0.78 (≈ 1.43 µM) | 1.56 (≈ 2.85 µM) | ≤ 0.2 | ≤ 0.2 | ≤ 0.2
4 | CC1=C(C(=O)O)N2C(=O)C(NC(=O)/C(=N\OCc3csc(N)n3)c3csc(N)n3)[C@H]2SC1 (stereo partly drawn) [1(b), (Z)-7-{α-(2-amino-4-thiazolyl)-α-[(2-amino-4-thiazolyl)methoxyimino]acetamido}-3-methyl-3-cephem-4-carboxylic acid] | 6.25 (≈ 12.6 µM) | ≤ 0.2 | 1.56 (≈ 3.15 µM) | 3.13 (≈ 6.32 µM) | 6.25 (≈ 12.6 µM) | 12.5 (≈ 25.2 µM) | 3.13 (≈ 6.32 µM) | 1.56 (≈ 3.15 µM) | 6.25 (≈ 12.6 µM) | 6.25 (≈ 12.6 µM) |  |  |  | 
5 | CC(=O)OCC1=C(C(=O)O)N2C(=O)C(NC(=O)/C(=N\OCc3csc(N)n3)c3csc(N)n3)[C@H]2SC1 (stereo partly drawn) [2(b), (Z)-7-{α-(2-amino-4-thiazolyl)-α-[(2-amino-4-thiazolyl)methoxyimino]acetamido}-3-acetoxymethyl-3-cephem-4-carboxylic acid] | 3.13 (≈ 5.65 µM) | ≤ 0.2 | 0.78 (≈ 1.41 µM) | 0.39 (≈ 0.704 µM) | 1.56 (≈ 2.82 µM) | 3.13 (≈ 5.65 µM) | 1.56 (≈ 2.82 µM) | ≤ 0.2 | 1.56 (≈ 2.82 µM) | 0.39 (≈ 0.704 µM) | 25 (≈ 45.2 µM) |  |  | 
6 | CO/N=C(\C(=O)N[C@@H]1C(=O)N2C(C(=O)O)=C(CSc3nnnn3C)CS[C@H]12)c1csc(N)n1 [CX, Cefmenoxime, reference compound] | 3.13 (≈ 6.12 µM) | ≤ 0.2 | 0.2 (≈ 0.391 µM) | ≤ 0.2 | 6.25 (≈ 12.2 µM) | 12.5 (≈ 24.4 µM) | 3.13 (≈ 6.12 µM) | 0.2 (≈ 0.391 µM) |  | 1.56 (≈ 3.05 µM) | 100 (≈ 195 µM) |  |  | 

Continued, in another order:

Row | MIC [1] [µg/mL] | MIC [2] [µg/mL] | MIC [3, 12] [µg/mL] | MIC ([4]; Proteus morgani IID 602) [µg/mL] | MIC [5] [µg/mL] | MIC [6] [µg/mL] | MIC [7] [µg/mL] | MIC ([8]; E. coli Ebara) [µg/mL] | MIC [9] [µg/mL] | MIC [10] [µg/mL] | MIC [11] [µg/mL] | Structure (SMILES) | MIC ([3]; IID620, read-out: MIC (minimum effective inhibitory concentration)) [µg/mL] | MIC [4] [µg/mL] | MIC [8] [µg/mL]
7 | 3.13 | ≤ 0.2 | ≤ 0.2 | 0.78 | 3.13 | 6.25 | 3.13 | 1.56 | 1.56 | 1.56 | 25 | Nc1nc(CO/N=C(\C(=O)NC2C(=O)N3C(C(=O)[O-])=C(C[n+]4cccc(CC(=O)O)c4)CSC23)c2csc(N)n2)cs1 (stereo not drawn) [Example 12, (Z)-7-{α-(2-amino-4-thiazolyl)-α-[(2-amino-4-thiazolyl)methoxyimino]acetamido}-3-(3-carboxylatemethyl-1-pyridiniomethyl)-3-cephem-4-carboxylate mono-sodium salt] |  |  | 
8 | 6.25 (≈ 10.6 µM) | ≤ 0.2 | 0.39 (≈ 0.663 µM) | 0.78 (≈ 1.33 µM) | 6.25 (≈ 10.6 µM) | 6.25 (≈ 10.6 µM) | 3.13 (≈ 5.32 µM) | 1.56 (≈ 2.65 µM) | 3.13 (≈ 5.32 µM) | 1.56 (≈ 2.65 µM) | 25 (≈ 42.5 µM) | Nc1nc(CO/N=C(\C(=O)NC2C(=O)N3C(C(=O)[O-])=C(C[n+]4cccc(O)c4)CS[C@H]23)c2csc(N)n2)cs1 (stereo partly drawn) [Example 16, (Z)-7-{α-(2-amino-4-thiazolyl)-α-[(2-amino-4-thiazolyl)methoxyimino]acetamido}-3-(3-hydroxy-1-pyridiniomethyl]-3-cephem-4-carboxylate] |  |  | 
9 | 12.5 | 0.39 | ≤ 0.2 | 1.56 | 6.25 | 12.5 | 6.25 | 6.25 | 3.13 | 1.56 | 25 | Nc1nc(CO/N=C(\C(=O)NC2C(=O)N3C(C(=O)[O-])=C(C[n+]4cccc(C(=O)NCC(=O)O)c4)CSC23)c2csc(N)n2)cs1 (stereo not drawn) [Example 20, (Z)-7-{α-(2-amino-4-thiazolyl)-α-[(2-amino-4-thiazolyl)methoxyimino]acetamido}-3-{3-[N-(carboxylatemethyl)carbamoyl]-1-pyridiniomethyl}-3-cephem-4-carboxylate mono-sodium salt] |  |  | 
10 | 3.13 (≈ 5.33 µM) | ≤ 0.2 | ≤ 0.2 | 0.78 (≈ 1.33 µM) | 0.78 (≈ 1.33 µM) | 0.78 (≈ 1.33 µM) | 0.78 (≈ 1.33 µM) | 0.39 (≈ 0.664 µM) | 1.56 (≈ 2.65 µM) | 0.78 (≈ 1.33 µM) | 6.25 (≈ 10.6 µM) | Nc1ccc[n+](CC2=C(C(=O)[O-])N3C(=O)C(NC(=O)/C(=N\OCc4csc(N)n4)c4csc(N)n4)[C@H]3SC2)c1 (stereo partly drawn) [Example 19, (Z)-7-{α-(2-amino-4-thiazolyl)-α-[(2-amino-4-thiazolyl)methoxyimino]acetamido}-3-(3-amino-1-pyridiniomethyl)-3-cephem-4-carboxylate] |  |  | 
11 | 3.13 (≈ 4.96 µM) | ≤ 0.2 | 0.39 (≈ 0.617 µM) | 0.78 (≈ 1.23 µM) | 6.25 (≈ 9.89 µM) | 3.13 (≈ 4.96 µM) | 3.13 (≈ 4.96 µM) | 0.39 (≈ 0.617 µM) | 1.56 (≈ 2.47 µM) | 0.39 (≈ 0.617 µM) | 6.25 (≈ 9.89 µM) | Nc1nc(CON=C(C(=O)NC2C(=O)N3C(C(=O)[O-])=C(C[n+]4ccc(C(=O)NO)cc4)CS[C@H]23)c2csc(N)n2)cs1 (stereo partly drawn) [Example 23, (Z)-7-{α-(2-amino-4-thiazolyl)-α-[(2-amino-4-thiazolyl)methoxyimino]acetamido}-3-(4-hydroxycarbamoyl-1-pyridiniomethyl)-3-cephem-4-carboxylate] |  |  | 
12 | 6.25 (≈ 10.9 µM) | ≤ 0.2 | 0.39 (≈ 0.68 µM) | 1.56 (≈ 2.72 µM) | 1.56 (≈ 2.72 µM) | 1.56 (≈ 2.72 µM) | 1.56 (≈ 2.72 µM) | 0.78 (≈ 1.36 µM) | 3.13 (≈ 5.46 µM) | 0.78 (≈ 1.36 µM) | 12.5 (≈ 21.8 µM) | Nc1nc(CO/N=C(\C(=O)NC2C(=O)N3C(C(=O)[O-])=C(C[n+]4ccccn4)CSC23)c2csc(N)n2)cs1 (stereo not drawn) [Example 7, (Z)-7-{α-(2-amino-4-thiazolyl)-α-[(2-amino-4-thiazolyl)methoxyimino]acetamido}-3-(1-pyridadiniomethyl)-3-cephem-4-carboxylate] |  |  | 
13 | 3.13 (≈ 5.08 µM) | ≤ 0.2 | 0.39 (≈ 0.633 µM) | 0.78 (≈ 1.27 µM) | 0.78 (≈ 1.27 µM) | 1.56 (≈ 2.53 µM) | 0.78 (≈ 1.27 µM) | 0.78 (≈ 1.27 µM) | 1.56 (≈ 2.53 µM) | 0.39 (≈ 0.633 µM) | 6.25 (≈ 10.2 µM) | Nc1nc(CO/N=C(\C(=O)NC2C(=O)N3C(C(=O)[O-])=C(C[n+]4cccc(NC=O)c4)CS[C@H]23)c2csc(N)n2)cs1 (stereo partly drawn) [Example 18, (Z)-7-{α-(2-amino-4-thiazolyl)-α-[(2-amino-4-thiazolyl)methoxyimino]acetamido}-3-(3-formamido-1-pyridiniomethyl)-3-cephem-4-carboxylate] |  |  | 
